# ChEMBL document CHEMBL4806964, “Heterocyclic compound” (2019)
# How the values were obtained:
# [1] = molecular target: T1, CDK12/Cyclin K (Homo sapiens) (UniProt O75909+Q9NYV4); test: Inhibition of BODIPY-FL-labeled AT-7519 binding to human His-tagged CDK12/CycK assessed as BODIPY-FL-labeled AT-7519 binding by measuring fluorescence intensity at 1 uM incubated for 120 mins in presence of 3 uM BODIPY-FL-labeled AT-7519 by TR-FRET assay relative to control; type: protein-complex assay
# [2] = molecular target: T1, CDK12/Cyclin K (Homo sapiens); test: Inhibition of human His-tagged CDK12/CycK using ULight-labeled eIF4E-binding protein 1 substrate at 1 uM incubated for 60 mins by fluorescence based assay relative to control; type: protein-complex assay
# A2780 = test: Antiproliferative activity against human A2780 cells at 1 uM by CellTiter-Glo reagent assay relative to control; type: functional
# [3] = molecular target: T1, CDK12/Cyclin K (Homo sapiens); test: Inhibition of BODIPY-FL-labeled AT-7519 binding to human His-tagged CDK12/CycK assessed as BODIPY-FL-labeled AT-7519 binding by measuring fluorescence intensity at 1 uM incubated for 120 mins in presence of 30 uM BODIPY-FL-labeled AT-7519 by TR-FRET assay relative to control; type: protein-complex assay
# [4] = molecular target: T1, CDK12/Cyclin K (Homo sapiens); test: Inhibition of human CDK12/CycK in human A2780 cells assessed as intracellular phosphorylated CTD Ser2 art 1 uM by In-Cell Western method relative to control; type: cell-based
# T1 sequence (O75909 whole entry, looked up): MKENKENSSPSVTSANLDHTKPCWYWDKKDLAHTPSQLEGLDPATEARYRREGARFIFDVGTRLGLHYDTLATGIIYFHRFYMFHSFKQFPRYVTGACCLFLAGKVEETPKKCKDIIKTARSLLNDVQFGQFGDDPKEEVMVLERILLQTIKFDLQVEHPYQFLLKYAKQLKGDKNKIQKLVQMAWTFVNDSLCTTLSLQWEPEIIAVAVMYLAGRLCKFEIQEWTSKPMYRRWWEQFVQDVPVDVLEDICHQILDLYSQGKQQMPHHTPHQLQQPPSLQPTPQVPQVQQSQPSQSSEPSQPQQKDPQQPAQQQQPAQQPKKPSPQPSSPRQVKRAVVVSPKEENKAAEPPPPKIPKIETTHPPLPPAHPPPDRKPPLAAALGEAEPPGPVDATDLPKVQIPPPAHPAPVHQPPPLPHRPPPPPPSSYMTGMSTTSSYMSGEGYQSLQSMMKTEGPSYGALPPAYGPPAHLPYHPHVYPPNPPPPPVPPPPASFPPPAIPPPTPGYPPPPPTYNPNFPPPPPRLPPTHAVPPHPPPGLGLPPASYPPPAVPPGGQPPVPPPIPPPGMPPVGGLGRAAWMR
# T1 sequence (Q9NYV4 whole entry, looked up): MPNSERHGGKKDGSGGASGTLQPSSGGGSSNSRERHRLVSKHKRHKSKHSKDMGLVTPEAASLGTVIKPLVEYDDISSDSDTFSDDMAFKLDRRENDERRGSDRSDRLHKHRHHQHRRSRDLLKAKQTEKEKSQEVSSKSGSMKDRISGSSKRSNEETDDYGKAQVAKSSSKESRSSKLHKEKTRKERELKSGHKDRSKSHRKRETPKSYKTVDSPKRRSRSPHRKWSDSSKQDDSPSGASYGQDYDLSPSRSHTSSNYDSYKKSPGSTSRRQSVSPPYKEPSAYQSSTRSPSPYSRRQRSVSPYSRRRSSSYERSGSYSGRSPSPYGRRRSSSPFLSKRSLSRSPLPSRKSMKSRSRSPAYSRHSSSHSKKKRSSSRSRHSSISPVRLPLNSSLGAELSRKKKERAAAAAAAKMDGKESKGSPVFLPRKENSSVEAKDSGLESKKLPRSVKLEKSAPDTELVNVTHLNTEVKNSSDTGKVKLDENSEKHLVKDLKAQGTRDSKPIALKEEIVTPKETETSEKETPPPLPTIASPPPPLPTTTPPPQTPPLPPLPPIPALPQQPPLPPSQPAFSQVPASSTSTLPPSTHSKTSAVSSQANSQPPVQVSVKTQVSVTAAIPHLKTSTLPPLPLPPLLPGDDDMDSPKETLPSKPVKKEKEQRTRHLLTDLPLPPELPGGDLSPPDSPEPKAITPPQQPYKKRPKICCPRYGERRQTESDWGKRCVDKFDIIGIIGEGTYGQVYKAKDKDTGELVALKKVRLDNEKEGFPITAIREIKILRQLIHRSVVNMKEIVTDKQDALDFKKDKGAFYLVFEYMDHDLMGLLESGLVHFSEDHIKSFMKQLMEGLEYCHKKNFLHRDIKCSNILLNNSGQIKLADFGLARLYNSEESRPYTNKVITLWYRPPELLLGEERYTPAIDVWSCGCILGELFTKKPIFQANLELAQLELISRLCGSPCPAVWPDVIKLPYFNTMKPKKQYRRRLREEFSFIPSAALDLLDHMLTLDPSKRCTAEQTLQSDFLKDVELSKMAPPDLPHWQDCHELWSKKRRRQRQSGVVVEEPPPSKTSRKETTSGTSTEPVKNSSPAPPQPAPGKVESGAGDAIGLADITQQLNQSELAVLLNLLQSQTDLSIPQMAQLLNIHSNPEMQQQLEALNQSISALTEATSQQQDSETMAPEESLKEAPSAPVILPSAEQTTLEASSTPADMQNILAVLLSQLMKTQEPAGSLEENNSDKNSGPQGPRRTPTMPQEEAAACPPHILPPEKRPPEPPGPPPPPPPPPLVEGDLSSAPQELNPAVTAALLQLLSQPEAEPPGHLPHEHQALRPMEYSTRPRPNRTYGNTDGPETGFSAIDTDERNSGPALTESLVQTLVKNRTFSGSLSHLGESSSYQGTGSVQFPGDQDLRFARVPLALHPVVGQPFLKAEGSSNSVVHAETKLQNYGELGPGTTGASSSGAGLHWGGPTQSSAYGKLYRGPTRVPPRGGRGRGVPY
Compound,inhibition [1],inhibition [3],other results
COc1ncc(-c2ccc(N(C(=O)COc3ccccc3)[C@H]3CC[C@H](Nc4ncc(C#N)c(N5CCCC(O)CC5)n4)CC3)nc2)cn1 (some centres undefined),104%,–,–
COc1ncc(-c2cnc(N(C(=O)NCc3ccccn3)[C@H]3CC[C@H](Nc4ncc(C(F)(F)F)c(OC5COC5)n4)CC3)nc2)cn1,103%,–,inhibition [2]: 99%; inhibition at 1 µM (A2780): 98%
COc1ncc(-c2cnc(N(C(=O)NCc3ccccc3)[C@H]3CC[C@H](Nc4ncc(C(F)(F)F)c(N5CC(C)(O)C5)n4)CC3)cn2)cn1,103%,–,–
CCCC(=O)N(c1cnc(-c2cnn(C)c2)cn1)[C@H]1CC[C@H](Nc2ncc(C(F)(F)F)c(-c3cncc(S(N)(=O)=O)c3)n2)CC1,–,99%,–
COCCNC(=O)N(c1cnc(-c2cnc(OC)nc2)cn1)[C@H]1CC[C@H](Nc2ncc(C(F)(F)F)c(-c3ccn(C(F)F)n3)n2)CC1,–,90%,–
Cn1cc(-c2ccc(N(C(=O)NCc3ccccc3)[C@H]3CC[C@H](Nc4ncc(C#N)c(-c5[nH]ncc5O)n4)CC3)nc2)cn1,96%,–,–
COc1ncc(-c2cnc(N(C(=O)NCc3ccccc3)[C@H]3CC[C@H](Nc4ncc(C#N)c(N5CCCC(O)CC5)n4)CC3)nc2)cn1 (some centres undefined),–,–,inhibition [4]: 48%
COCCOC(=O)N(c1cnc(-c2cnc(OC)nc2)cn1)[C@H]1CC[C@H](Nc2ncc(C(F)(F)F)c(-c3cncc(S(N)(=O)=O)c3)n2)CC1,–,91%,–

# Further lines, with some results ahead:
inhibition [1],inhibition [3],Compound,other results
100%,–,COc1ncc(-c2cnc(N(C(=O)COc3ccccc3)[C@H]3CC[C@H](Nc4ncc(C(F)(F)F)c(N5CC(C)(O)C5)n4)CC3)cn2)cn1,–
–,95%,COCC(=O)N(c1cnc(-c2cnn(C)c2)cn1)[C@H]1CC[C@H](Nc2ncc(C(F)(F)F)c(-c3cncc(S(N)(=O)=O)c3)n2)CC1,–
96%,–,COc1ncc(-c2cnc(N(C(=O)NCc3ccccc3)[C@H]3CC[C@H](Nc4ncc(C(F)(F)F)c(NC5COC5)n4)CC3)nc2)cn1,–
95%,–,COc1ncc(-c2cnc(N(C(=O)NCc3ccccc3)[C@H]3CC[C@H](Nc4ncc(C#N)c(N5CC(C)(O)C5)n4)CC3)nc2)cn1,inhibition [2]: 105%; inhibition [4]: 54%; inhibition at 1 µM (A2780): 94%
–,99%,COc1ncc(-c2cnc(N(C(=O)OCCN3CCOCC3)[C@H]3CC[C@H](Nc4ncc(C(F)(F)F)c(-c5cncc(S(N)(=O)=O)c5)n4)CC3)cn2)cn1,–
98%,–,COc1ncc(-c2ccc(N(C(=O)COc3ccccc3)[C@H]3CC[C@H](Nc4ncc(C#N)c(OC5COC5)n4)CC3)nc2)cn1,–
